# Laboratory results as given in patent US11834448B2, “2-amino-quinoline derivatives” (BIRDIE BIOPHARMACEUTICALS, INC., priority 2017, dated 2023).
# Columns and labels:
# Human PBMCs [1] = test: Cytokine production in PBMCs: human IFN-α by ELISA; type: cell-based; set-up: key: ″+″ means that there was production of IFNa or IL-6 on PBMC; ″−″means that noproduction of IFNa or IL-6 on PBMC was detected; conditions: compounds tested at concentration of 10 uM; human PBMCs cultured 20-22 hours; supernatant ELISA
# Description: (§1) The compound functionality was tested for some of the compounds prepared by stimulation and determination of cytokine production in PBMCs.
# (§2) Human PBMCs were prepared from buffy coat obtained from healthy volunteer donor by Ficoll centrifugation and were adjusted to the final cell concentration to 1×10^6 cells/mL.
# (§3) For evaluation of compound activities, 1×10^5 PBMCs were plated in a 96-well plate in 100 μl of RPMI 1640 complete medium (cat no. 31800-022, GIBCO by Life Technologies, Grand Island, NY, USA) supplemented with 10% fetal bovine serum, the tested compound was first dissolved in DMSO and further diluted in PBS and RPMI 1640 medium to the final concentration of […] (corresponding to 6.28 μg/mL), then 3-fold serially dilution was made in a 96-well round-bottom plate. 100 μl diluted compound was added to the same volume of 1×10^5 PBMCs plate and cultured for 20-22 hours at 37° C. in a humidified atmosphere of 5% CO2. The supernatant was collected for human IFN-α, IL12(p70) and IL-6 analysis by ELISA assay according to the manufacturer's instructions (Mabtech AB, Sweden). Resiquimod was used as a positive control.
# Human PBMCs [2] = test: Cytokine production in PBMCs: human IL-6 by ELISA; type: cell-based; set-up: key: ″+″ means that there was production of IFNa or IL-6 on PBMC; ″−″means that noproduction of IFNa or IL-6 on PBMC was detected; conditions: compounds tested at concentration of 10 uM; human PBMCs cultured 20-22 hours; supernatant ELISA
# Description: as §1, §2, §3
Compound,Production of IFNa on PBMC (Human PBMCs [1]),Production of IL−6 on PBMC (Human PBMCs [2])
"CCOCc1nc2c(N)nc3cccc(OC)c3c2n1CC(C)(C)O [Compound 1, 1-(4-amino-2-(ethoxymethyl)-9-methoxy-1H-imidazo[4,5-c]quinolin-1-yl)-2-methylpropan-2-ol]",+,+
"CCOCc1nc2c(N)nc3cccc(OC)c3c2n1CC(C)C [Compound 2, 2-(ethoxymethyl)-1-isobutyl-9-methoxy-1H-imidazo[4,5-c]quinolin-4-amine]",+,+
"COCCc1nc2c(N)nc3cccc(OC)c3c2n1CC(C)(C)O [Compound 3, 1-(4-amino-9-methoxy-2-(2-methoxyethyl)-1H-imidazo[4,5-c]quinolin-1-yl)-2-methylpropan-2-ol]",−,−
"COc1cccc2nc(N)c3nc(CCO)n(CC(C)(C)O)c3c12 [Compound 4, 1-(4-amino-2-(2-hydroxyethyl)-9-methoxy-1H-imidazo[4,5-c]quinolin-1-yl)-2-methylpropan-2-ol]",−,−
"CCOCc1nc2c(N)nc3cccc(OCCC(C)(C)O)c3c2[nH]1 [Compound 5, 4-((4-amino-2-(ethoxymethyl)-1H-imidazo[4,5-c]quinolin-9-yl)oxy)-2-methylbutan-2-ol]",+,+
"CCOCc1nc2c(N)nc3cccc(OCCC(C)C)c3c2[nH]1 [Compound 6, 2-(ethoxymethyl)-9-(isopentyloxy)-1H-imidazo[4,5-c]quinolin-4-amine]",,+
"CCOCc1nc2c(N)nc3cccc(OCCC(C)O)c3c2[nH]1 (centres unmarked) [Compound 7, 4-((4-amino-2-(ethoxymethyl)-1H-imidazo[4,5-c]quinolin-9-yl)oxy)butan-2-ol]",,+
"CCOCc1nc2c(N)nc3cccc(OCC(C)O)c3c2[nH]1 (centres unmarked) [Compound 8, 1-((4-amino-2-(ethoxymethyl)-1H-imidazo[4,5-c]quinolin-9-yl)oxy)propan-2-ol]",+,+
"COCCc1nc2c(N)nc3cccc(OCCC(C)(C)O)c3c2[nH]1 [Compound 9, 4-((4-amino-2-(2-methoxyethyl)-1H-imidazo[4,5-c]quinolin-9-yl)oxy)-2-methylbutan-2-ol]",,+
"CCOCc1nc2c(N)nc3cccc(OCCC(C)(C)O)c3c2n1C [Compound 10, 4-((4-amino-2-(ethoxymethyl)-1-methyl-1H-imidazo[4,5-c]quinolin-9-yl)oxy)-2-methylbutan-2-ol]",,+
"CCOCc1nc2c(N)nc3cccc(OCCOC(C)C)c3c2[nH]1 [Compound 11, 2-(ethoxymethyl)-9-(2-isopropoxyethoxy)-1H-imidazo[4,5-c]quinolin-4-amine]",+,+
"CCOCc1nc2c(N)nc3cccc(OCCC(C)(C)O)c3c2n1CC(C)C [Compound 12, 4-((4-amino-2-(ethoxymethyl)-1-isobutyl-1H-imidazo[4,5-c]quinolin-9-yl)oxy)-2-methylbutan-2-ol]",+,+
"CCOCc1nc2c(N)nc3cccc(OC)c3c2n1CCOC(C)C [Compound 13, 2-(ethoxymethyl)-1-(2-isopropoxyethyl)-9-methoxy-1H-imidazo[4,5-c]quinolin-4-amine]",+,+
"CCOCc1nc2c(N)nc3cccc(OC)c3c2n1CCC(C)(C)O [Compound 14, 4-(4-amino-2-(ethoxymethyl)-9-methoxy-1H-imidazo[4,5-c]quinolin-1-yl)-2-methylbutan-2-ol]",+,+
"CCOCc1nc2c(N)nc3cccc(OCC(C)C)c3c2[nH]1 [Compound 15, 2-(ethoxymethyl)-9-isobutoxy-1H-imidazo[4,5-c]quinolin-4-amine]",+,+
"CCOCc1nc2c(N)nc3cccc(OCCOC(C)C)c3c2n1C [Compound 16, 2-(ethoxymethyl)-9-(2-isopropoxyethoxy)-1-methyl-1H-imidazo[4,5-c]quinolin-4-amine]",+,+
"CCOCc1nc2c(N)nc3cccc(OCCC(C)C)c3c2n1C [Compound 17, 2-(ethoxymethyl)-9-(isopentyloxy)-1-methyl-1H-imidazo[4,5-c]quinolin-4-amine]",+,+
"CCOCc1nc2c(N)nc3cccc(OCC(C)C)c3c2n1C [Compound 18, 2-(ethoxymethyl)-9-isobutoxy-1-methyl-1H-imidazo[4,5-c]quinolin-4-amine]",+,+
"CCOCc1nc2c(N)nc3cccc(OCCCNS(C)(=O)=O)c3c2n1C [Compound 19, N-(3-((4-amino-2-(ethoxymethyl)-1-methyl-1H-imidazo[4,5-c]quinolin-9-yl)oxy)propyl)methanesulfonamide]",+,+
"CCOCc1nc2c(N)nc3cccc(OCCOCCNS(C)(=O)=O)c3c2n1C [Compound 20, N-(2-(2-((4-amino-2-(ethoxymethyl)-1-methyl-1H-imidazo[4,5-c]quinolin-9-yl)oxy)ethoxy)ethyl)-methanesulfonamide]",+,+
"CCOCc1nc2c(N)nc3cccc(OCCCCNS(C)(=O)=O)c3c2n1C [Compound 22, N-(4-((4-amino-2-(ethoxymethyl)-1-methyl-1H-imidazo[4,5-c]quinolin-9-yl)oxy)butyl)methanesulfonamide]",+,+
"CCOCc1nc2c(N)nc3cccc4c3c2n1[C@@H](C(C)(C)O)CO4 [Compound 40, (R)-2-(10-amino-2-(ethoxymethyl)-3,4-dihydro-5-oxa-1,2a,9-triazanaphtho[2,1,8-cde]azulen-3-yl)propan-2-ol]",,−
"CCOCc1nc2c(N)nc3cccc4c3c2n1[C@H](C(C)(C)O)CO4 [Compound 41, (S)-2-(10-amino-2-(ethoxymethyl)-3,4-dihydro-5-oxa-1,2a,9-triazanaphtho[2,1,8-cde]azulen-3-yl)propan-2-ol]",,+
"CCOCc1nc2c(N)nc3cccc4c3c2n1C[C@@](C)(O)CO4 [Compound 43, (R)-2-amino-12-(ethoxymethyl)-6-methyl-6,7-dihydro-5H-3,4-(azenometheno)[1,5]oxazocino[4,3,2-de]quinolin-6-ol]",,−
"CCOCc1nc2c(N)nc3cccc4c3c2n1C[C@@H](O)CO4 [Compound 44, (R)-2-amino-12-(ethoxymethyl)-6,7-dihydro-5H-3,4-(azenometheno)[1,5]oxazocino[4,3,2-de]quinolin-6-ol]",,−
"CCOCc1nc2c(N)nc3cccc4c3c2n1C[C@H](O)CO4 [Compound 45, (S)-2-amino-12-(ethoxymethyl)-6,7-dihydro-5H-3,4-(azenometheno)[1,5]oxazocino-[4,3,2-de]quinolin-6-ol]",,+
"CCOCc1nc2c(N)nc3cccc4c3c2n1CC(=O)CO4 [Compound 46, 2-amino-12-(ethoxymethyl)-5H-3,4-(azenometheno)[1,5]oxazocino[4,3,2-de]quinolin-6(7H)-one]",,+
